# Test results as given in US7038106B1, “Detection of neural activity” (The University Court of the University of Glasgow, priority 1998, dated 2006).
# Entries after “also recorded” stand apart in the source; their conditions may differ. Where two headings read alike, the source gives them in different places.
# Assays:
# [1] = system: Honeybee KCs calcium current; settings: cited from earlier work
# [2] = system: mushroom bodies (Kenyon cells) of Drosophila adult brain; assay: Aequorin luminometry of endogenous intracellular calcium oscillation in intact Drosophila brain (GAL4-aeq lines); type: cell-based; settings: for EC50: Drosophila melanogaster, read-out: EC50 for reduction of oscillation amplitude; for Effect on oscillation amplitude and period/frequency: concentration not given
# [3] = system: Honeybee KCs delayed rectifier-type current; settings: cited from earlier work
compound,measurement,setting,value
COc1ccc(CCN(C)CCCC(C#N)(c2ccc(OC)c(OC)c2)C(C)C)cc1OC (stereo not shown) [Verapamil],Effect on calcium current,[1],affected
NC1=N[C@H](O)[C@H]2[C@H]3O[C@]4(O)O[C@@H]([C@@H](O)[C@@]2(N1)[C@@H]4O)[C@]3(O)CO [Tetrodotoxin],Effect on oscillation,[2],cessation of oscillation within a few cycles of application; also recorded: oscillation resumes in the form of a series of spaced bursts of very high relative amplitude
"CC(=O)[O-].CC[N+](CC)(CC)CC [TEA, tetraethylammonium acetate]",Sensitivity of delayed rectifier-type current,[3],only weakly sensitive
same,Effect on oscillation,[2],eliminate oscillations
same,EC50,[2],~70 µM
O=C(O)CN(CCOCCOCCN(CC(=O)O)CC(=O)O)CC(=O)O [EGTA],Effect on oscillation,"[2]; 1 mM, removal of external calcium",Oscillation ceases
CCCC(=O)Nc1ncnc2c1ncn2[C@@H]1O[C@@H]2COP(=O)(O)O[C@H]2[C@H]1OC(=O)CCC [dibutyryl cAMP],Effect on oscillation,"[2]; 1 mM, cAMP pathway",ineffective
NCCCC(=O)O [GABA],Effect on oscillation amplitude and period,[2]; 1 mM,increases both amplitude and period
same,Effect on oscillation amplitude and period/frequency,[2],increases both amplitude and period
[Co] [Cobalt],Effect on oscillation,[2]; 1–10 mM range,gradual dampening effect on oscillation
Picrotoxin [Pierotoxin],Effect on oscillation amplitude and period/frequency,[2],opposite effects
CN1CCCC1c1cccnc1 (stereo not shown) [Nicotine],Effect on oscillation,[2],complete abolition of oscillation
C=C[C@H]1C[N@@]2CC[C@H]1C[C@@H]2[C@@H](O)c1ccnc2ccc(OC)cc12 [Quinidine],Effect on delayed rectifier-type current,[3]; 100 μM,blocked
Nc1c2c(nc3ccccc13)CCCC2 [Tacrine],EC50,"[2]; dose-response curves from amplitudes measured before and after treatment, 117Y-aeq adult brains",~1 µM
same,Effect on oscillation amplitude and period/frequency,[2],reduce both oscillation amplitude and frequency
Nc1ccncc1 [4-aminopyridine],Sensitivity of oscillation in Sh5 background relative to Sh+ control (less sensitive),[2],10 fold
same,EC50,"[2]; dose-response curves from amplitudes measured before and after treatment, […]",~30 µM
same,Effect on oscillation frequency / period,[2]; concentration not stated or dose-dependent,dose-dependent reduction of oscillation period
same,Effect on oscillation amplitude,"[2]; concentration not stated or dose-dependent, […]",reduce oscillation amplitude in a dose-dependent manner
